{"source": "patent EP2987482A1", "about": "(Santa Farma Ilaç Sanayi A.S., priority 2014, dated 2016)", "key": {"[1]": {"test": "pH of media after dissolving the composition in water", "assay_type": "physicochemical", "conditions": "magnetic stirrer for 3 minutes"}, "[2]": {"conditions": "cited from earlier work"}}, "data": [{"substance": "4-[3,5-bis(2-hydroxyphenyl)-[1,2,4]triazol-1-yl]benzoic acid [deferasirox]", "values": [{"measurement": "pH of media", "setting": "[1]; composition with 500 mg deferasirox and 40 mg sodium carbonate", "result": 8.13}, {"measurement": "pH of media", "setting": "[1]; composition with 500 mg deferasirox and 60 mg sodium carbonate", "result": 8.33}, {"measurement": "pH of media", "setting": "[1]; composition with 500 mg deferasirox and 80 mg sodium carbonate", "result": 8.44}, {"measurement": "pH of media", "setting": "[1]; composition with 500 mg deferasirox and 100 mg sodium carbonate", "result": 8.65}, {"measurement": "pH of media", "setting": "[1]; composition with 500 mg deferasirox and 120 mg sodium carbonate", "result": 8.77}, {"measurement": "pH of media", "setting": "[1]; composition with 500 mg deferasirox and 140 mg sodium carbonate", "result": 8.84}, {"measurement": "pH of media", "setting": "[1]; composition with 500 mg deferasirox and 160 mg sodium carbonate", "result": 8.91}, {"measurement": "permeability", "setting": "[2]", "result": "good permeability"}]}]}
